# Source: PubChem BioAssay AID493112 (Sanford-Burnham Center for Chemical Genomics, 2011)
# Active and inactive are the calls of the source.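 Rule for the calls: active = mean half-maximal activation concentration below 100 µM; inactive = the rest.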
# Target: Alkaline phosphatase, tissue-nonspecific isozyme (Homo sapiens) (UniProt P05186)
# Experiment: effect of analogs on TNAP activity, SAR follow-up, selectivity assay for human IAP activator project, biochemical, human TNAP (AID 493112)
# Conditions: purified TNAP, CDP-Star luminescence, 30 min
# Chain of Alkaline phosphatase, tissue-nonspecific isozyme (Homo sapiens) (P05186 whole entry, looked up): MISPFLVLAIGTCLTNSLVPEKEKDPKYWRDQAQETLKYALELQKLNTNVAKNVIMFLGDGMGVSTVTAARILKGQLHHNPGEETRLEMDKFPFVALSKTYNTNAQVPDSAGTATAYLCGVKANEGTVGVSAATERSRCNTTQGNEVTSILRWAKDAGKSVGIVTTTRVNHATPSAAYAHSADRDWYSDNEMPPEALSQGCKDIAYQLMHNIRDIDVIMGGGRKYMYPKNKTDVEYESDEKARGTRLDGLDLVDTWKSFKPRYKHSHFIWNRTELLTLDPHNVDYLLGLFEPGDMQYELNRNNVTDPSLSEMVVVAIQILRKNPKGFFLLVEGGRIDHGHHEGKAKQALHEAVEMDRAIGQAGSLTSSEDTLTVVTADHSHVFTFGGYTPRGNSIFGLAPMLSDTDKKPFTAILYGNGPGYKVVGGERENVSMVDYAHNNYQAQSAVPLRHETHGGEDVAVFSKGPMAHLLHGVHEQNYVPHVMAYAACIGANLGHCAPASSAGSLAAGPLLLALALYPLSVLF
row,Compound,IC50 (inhibition of TNAP activity)
1,COc1cccc(C=NNC(=O)C(=O)NN=Cc2cccc(OC)c2OC)c1OC,36.1 µM
2,O=C(N/N=C/c1ccc2c(c1)OCO2)C(=O)N/N=C/c1ccc2c(c1)OCO2,> 100 µM (inactive)
3,CCOc1cc(/C=N/NC(=O)C(=O)N/N=C/c2ccc(O)c(OCC)c2)ccc1O,> 100 µM (inactive)
4,CCOc1cccc(C=NNC(=O)c2cc(C3CC3)[nH]n2)c1O,12.2 µM
5,Cc1cc(C(=O)NN=Cc2cc(Cl)cc([N+](=O)[O-])c2O)n[nH]1,> 100 µM (inactive)
6,CCN(CC)c1ccc(/C=N/NC(=O)C(=O)N/N=C/c2ccc(N(CC)CC)cc2O)c(O)c1,> 100 µM (inactive)
7,Cn1cccc1-c1cc(C(=O)NN=Cc2cc(Br)ccc2O)[nH]n1,9.38 µM
8,Cc1cc(C(=O)N/N=C/c2cc(Br)ccc2O)n[nH]1,8.35 µM
9,Cc1ccc(O)c(C=NNC(=O)c2[nH]ncc2Br)c1,15.6 µM
10,CCOc1cccc(C=NNC(=O)c2cc(-c3cccn3C)n[nH]2)c1O,10.2 µM
11,COc1cc(/C=N/NC(=O)C(=O)N/N=C/c2cc(OC)c(OC)c(OC)c2)cc(OC)c1OC,> 100 µM (inactive)
12,COc1ccc(/C=N/NC(=O)C(=O)N/N=C/c2ccc(OC)c(OC)c2)cc1OC,> 100 µM (inactive)
13,CC1C(=O)NN=C1C(=O)NN=Cc1ccc(O)cc1O (stereo not given),> 100 µM (inactive)
14,CN(C)c1ccc(/C=N/NC(=O)C(=O)N/N=C/c2ccc(N(C)C)cc2)cc1,> 100 µM (inactive)
15,COc1cccc(C=NNC(=O)C2=NNC(=O)C2C)c1O (stereo not given),12.1 µM
16,COc1cccc(C=NNC(=O)c2cc(-c3cccn3C)n[nH]2)c1O,9.52 µM
17,CCCCOc1ccc(/C=N/NC(=O)C(=O)N/N=C/c2ccc(OCCCC)cc2)cc1,> 100 µM (inactive)
18,O=C(N/N=C/c1cc(Br)ccc1O)C(=O)N/N=C/c1cc(Br)ccc1O,> 100 µM (inactive)
19,COc1cc(/C=N/NC(=O)C(=O)N/N=C/c2ccc(O)c(OC)c2)ccc1O,> 100 µM (inactive)
20,COc1cc(/C=N\NC(=O)C(=O)N/N=C/c2cc(OC)c(O)c(OC)c2)cc(OC)c1O,> 100 µM (inactive)
21,Cc1cc(C(=O)NN=Cc2cccc([N+](=O)[O-])c2O)n[nH]1,> 100 µM (inactive)
22,CC(=O)Nc1ccc(/C=N/NC(=O)C(=O)N/N=C/c2ccc(NC(C)=O)cc2)cc1,> 100 µM (inactive)
23,O=C(N/N=C/c1cc(Br)ccc1O)c1cc(C2CC2)[nH]n1,8.03 µM
24,O=C(N/N=C\c1ccc2c(c1)OCO2)C(=O)N/N=C/c1ccc2c(c1)OCO2,> 100 µM (inactive)
25,Cc1cc(C(=O)N/N=C\c2cc(C(C)(C)C)ccc2O)n[nH]1,7.22 µM
26,COc1ccc(-c2csc(Nc3cccc4ccccc34)n2)cc1F,> 100 µM (inactive)
27,COc1ccc(OC)c(/C=N/NC(=O)C(=O)N/N=C/c2cc(OC)ccc2OC)c1,69.5 µM
28,OC(c1nc2ccc(F)cc2[nH]1)C(O)c1nc2ccc(F)cc2[nH]1 (stereo not given),7.21 µM
29,N#CCOc1ccccc1/C=N/NC(=O)C(=O)N/N=C/c1ccccc1OCC#N,> 100 µM (inactive)
30,COc1cc(OC)c(OC)cc1/C=N/NC(=O)C(=O)N/N=C/c1cc(OC)c(OC)cc1OC,> 100 µM (inactive)

# More lines, now with the values ahead:
row,IC50 (inhibition of TNAP activity),Compound
1,10.3 µM,CC(=O)Nc1cccc(C(=O)NNC(=O)c2n[nH]c(=O)c3ccccc23)c1
2,15.3 µM,O=C(NNC(=S)NC(=O)c1ccccc1[N+](=O)[O-])c1ccccc1O
3,> 100 µM (inactive),O=C(NN=Cc1c(O)ccc2ccccc12)c1[nH]ncc1Br
4,> 100 µM (inactive),O=C(CCN1C(=O)/C(=C/c2ccccc2Cl)SC1=S)NNC(=O)c1ccccc1O
5,> 100 µM (inactive),O=C(NN=Cc1ccc(O)cc1O)C(=O)NN=Cc1ccc(O)cc1O
6,54.3 µM,CC(C)Oc1ccccc1/C=N/NC(=O)C(=O)N/N=C/c1ccccc1OC(C)C
7,24.5 µM,O=C(NN=Cc1ccccc1)C(=O)NN=Cc1ccccc1
8,> 100 µM (inactive),O=C(N/N=C\c1cccc(O)c1)C(=O)N/N=C/c1cccc(O)c1
9,> 100 µM (inactive),CC(=NNC(=O)C(=O)NN=C(C)c1cccc(O)c1)c1cccc(O)c1
10,4.74 µM,O=C(N/N=C/c1ccccc1O)c1n[nH]c2c1CCC2
11,> 100 µM (inactive),O=C(N/N=C/c1ccc(O)cc1)C(=O)N/N=C/c1ccc(O)cc1
12,10.9 µM,COc1cccc(C=NNC(=O)c2[nH]nc3c2CCc2ccccc2-3)c1O
13,> 100 µM (inactive),O=C(N/N=C/c1c(O)ccc2ccccc12)C(=O)N/N=C/c1c(O)ccc2ccccc12
14,8.78 µM,C/C(=N\NC(=O)c1[nH]nc2c1CCc1ccccc1-2)c1ccccc1O
15,> 100 µM (inactive),COc1cccc(C=NNC(=O)C(=O)NN=Cc2cccc(OC)c2O)c1O
16,11.5 µM,O=C(NC(=S)NNC(=O)c1ccccc1O)c1ccc(F)cc1
17,> 100 µM (inactive),COC(=O)c1ccc(/C=N/NC(=O)C(=O)N/N=C/c2ccc(C(=O)OC)cc2)cc1
18,10.9 µM,COc1cc(OC)cc(C(=O)NNC(=O)c2nn(C)c(=O)c3ccccc23)c1
19,7.51 µM,O=C(N/N=C/c1ccccc1O)c1cc(C2CC2)[nH]n1
20,10.4 µM,CC(C)C(=O)NC(=S)Nc1ccccc1C(=O)Nc1ccccc1
21,6.16 µM,Cc1ccc(-c2cc(C(=O)NN=Cc3ccccc3O)n[nH]2)o1
22,> 100 µM (inactive),O=C(N/N=C/c1c(O)ccc2ccccc12)c1cc(-c2cccs2)[nH]n1
23,> 100 µM (inactive),C/C(=N\NC(=O)c1cc(C)[nH]n1)c1ccc2ccccc2c1O
24,36.2 µM,O=C(N/N=C/c1ccccc1C(=O)O)C(=O)N/N=C/c1ccccc1C(=O)O
25,> 100 µM (inactive),COc1ccc(-c2cc(C(=O)NN=Cc3c(O)ccc4ccccc34)[nH]n2)cc1
